One assay deals with DOHH2 cells. The assay is described as follows: Cell proliferation assay (MTS), DOHH2 cells. Format: cell-based. Particulars: DOHH2 (DSMZ ACC 47) cell proliferation, 5000 cells/well, 120 h, MTS, mechanism-based readout of Bcl-2 inhibition, read-out: DOHH2 IC50. The procedure, abridged: (§1)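 RS4;11 (30000 cells/well, 72 h) and DOHH2 (5000 cells/well, 120 h) cells in RPMI-1640/10% FBS, treated at 37 °C with compound at 1.5–10000 nM final. Viability by MTS (2 h, SDS stop), absorbance 490 nm minus 650 nm reference; IC50 fitted.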

The next assay deals with RS4; 11 cells. Put plainly: Cell proliferation assay (MTS), RS4; 11 cells. Format: cell-based. To be noted: RS4, 11 (ATCC CRL-1873) cell proliferation, 30000 cells/well, 72 h, MTS, mechanism-based readout of Bcl-2 inhibition, read-out: RS4, 11 IC50. The procedure, abridged: as §1

Read-outs that look alike come from different tables or passages of the source.

Consider `CC1(C)CCC(CN2CCN(c3ccc(C(=O)NS(=O)(=O)c4ccc(NCC5(F)CCC(N=S(C)(C)=O)CC5)c([N+](=O)[O-])c4)c(Oc4cnc5[nH]ccc5c4)c3)CC2)=C(c2ccc(Cl)cc2)C1` (stereo not drawn) [Example 58, 2-((1H-pyrrolo[2,3-b]pyridin-5-yl)oxy)-4-(4-((4′-chloro-5,5-dimethyl-3,4,5,6-tetrahydro-[1,1′-biphenyl]-2-yl)methyl)piperazin-1-yl)-N-((4-(((4-((dimethyl(oxo)-λ^6-sulfanylidene)amino)-1-fluorocyclohexyl)methyl)amino)-3-nitrophenyl)sulfonyl)benzamide], for which the IC50 in the assay with DOHH2 cells (Homo sapiens, DOHH-2, 120 h) was determined as 16 nM; in the assay on RS4; 11 cells (Homo sapiens, RS4-11, 72 h), 6 nM.
On to “(S)-2-((1H-pyrrolo[2,3-b] pyridin-5-yl)oxy)-4-(4-((4′- chloro-5,5-dimethyl- 3,4,5,6-tetrahydro-[1,1′- biphenyl]-2-yl)methyl) piperazin-1-yl)-N-((4-((1-(4- ((dimethyl(oxo)-λ^6- sulfanylidene)amino) piperidin-1-yl)propan-2-yl) amino)-3-nitrophenyl)sulfonyl) benzamide [Example 97]”, for which the IC50 was 325 nM in the assay on DOHH2 cells and 1 nM in the assay with RS4; 11 cells.
For `COC(=O)N=S1(=O)CCN(C[C@H](C)Nc2ccc(S(=O)(=O)NC(=O)c3ccc(N4CCN(CC5=C(c6ccc(Cl)cc6)CC(C)(C)CC5)CC4)cc3Oc3cnc4[nH]ccc4c3)cc2[N+](=O)[O-])CC1` [Example 44, methyl (S)-(4-(2-((4-(N-(2-((1H-pyrrolo[2,3-b]pyridin-5-yl)oxy)-4-(4-((4′-chloro-5,5-dimethyl-3,4,5,6-tetrahydro-[1,1′-biphenyl]-2-yl)methyl)piperazin-1-yl)benzoyl)sulfamoyl)-2-nitrophenyl)amino)propyl)-1-oxido-1λ^6-thiomorpholin-1-ylidene) carbamate], the IC50 was found to be 20 nM with DOHH2 cells (Homo sapiens, DOHH-2, 120 h) and 21 nM in the assay with RS4; 11 cells (Homo sapiens, RS4-11, 72 h).
As to `CC(=O)N=S1(=O)CCN(C[C@H](C)Nc2ccc(S(=O)(=O)NC(=O)c3ccc(N4CCN(CC5=C(c6ccc(Cl)cc6)CC(C)(C)CC5)CC4)cc3Oc3cnc4[nH]ccc4c3)cc2[N+](=O)[O-])CC1` [Example 40, (S)-2-((1H-pyrrolo[2,3-b]pyridin-5-yl)oxy)-N-((4-((1-(1-(acetylimino)-1-oxido-1λ^6-thiomorpholino)propan-2-yl)amino)-3-nitrophenyl)sulfonyl)-4-(4-((4′-chloro-5,5-dimethyl-3,4,5,6-tetrahydro-[1,1′-biphenyl]-2-yl)methyl)piperazin-1-yl)benzamide], the IC50 came out at 84 nM in the assay with DOHH2 cells (Homo sapiens, DOHH-2, 120 h) and 29 nM with RS4; 11 cells (Homo sapiens, RS4-11, 72 h).
Taken in the same sequence, the figures for `C[C@@H](CCN1CCS(=O)(=NC2CC2)CC1)Nc1ccc(S(=O)(=O)NC(=O)c2ccc(N3CCN(CC4=C(c5ccc(Cl)cc5)CC(C)(C)CC4)CC3)cc2Oc2cnc3[nH]ccc3c2)cc1[N+](=O)[O-]` [Example 79, (S)-2-((1H-pyrrolo[2,3-b]pyridin-5-yl)oxy)-4-(4-((4′-chloro-5,5-dimethyl-3,4,5,6-tetrahydro-[1,1′-biphenyl]-2-yl)methyl)piperazin-1-yl)-N-((4-((4-(1-(cyclopropylimino)-1-oxido-1λ^6-thiomorpholino)butan-2-yl)amino)-3-nitrophenyl)sulfonyl)benzamide] were 11 nM and 14 nM.
For the compound `C[C@@H](CN1CCP(C)(=O)CC1)Nc1ccc(S(=O)(=O)NC(=O)c2ccc(N3CCN(CC4=C(c5ccc(Cl)cc5)CC(C)(C)CC4)CC3)cc2Oc2cnc3[nH]ccc3c2)cc1[N+](=O)[O-]` [Example 17, (S)-2-((1H-pyrrolo[2,3-b]pyridin-5-yl)oxy)-4-(4-((4′-chloro-5,5-dimethyl-3,4,5,6-tetrahydro-[1,1′-biphenyl]-2-yl)methyl)piperazin-1-yl)-N-((4-((1-(4-methyl-4-oxido-1,4-azaphosphinan-1-yl)propan-2-yl)amino)-3-nitrophenyl)sulfonyl)benzamide], the IC50 with DOHH2 cells (Homo sapiens, DOHH-2, 120 h) is 132 nM; with RS4; 11 cells (Homo sapiens, RS4-11, 72 h), 111 nM.
Taken in the same sequence, the figures for `CC1(C)CCC(CN2CCN(c3ccc(C(=O)NS(=O)(=O)c4ccc(NCC5CC(N=S(C)(C)=O)C5)c([N+](=O)[O-])c4)c(Oc4cnc5[nH]ccc5c4)c3)CC2)=C(c2ccc(Cl)cc2)C1` (stereo not drawn) [Example 59, 2-((1H-pyrrolo[2,3-b]pyridin-5-yl)oxy)-4-(4-((4′-chloro-5,5-dimethyl-3,4,5,6-tetrahydro-[1,1′-biphenyl]-2-yl)methyl)piperazin-1-yl)-N-((4-(((3-((dimethyl(oxo)-λ^6-sulfanylidene)amino)cyclobutyl)methyl)amino)-3-nitrophenyl)sulfonyl)benzamide] were 82 nM and 35 nM.
The corresponding values for `CCN=S1(=O)CCN(CC[C@H](C)Nc2ccc(S(=O)(=O)NC(=O)c3ccc(N4CCN(CC5=C(c6ccc(Cl)cc6)CC(C)(C)CC5)CC4)cc3Oc3cnc4[nH]ccc4c3)cc2[N+](=O)[O-])CC1` [Example 78, (S)-2-((1H-pyrrolo[2,3-b]pyridin-5-yl)oxy)-4-(4-((4′-chloro-5,5-dimethyl-3,4,5,6-tetrahydro-[1,1′-biphenyl]-2-yl)methyl)piperazin-1-yl)-N-((4-((4-(1-(ethylimino)-1-oxido-1λ^6-thiomorpholino)butan-2-yl)amino)-3-nitrophenyl)sulfonyl) benzamide] are 11 nM and 16 nM.
Taken in the same sequence, the figures for `C[C@@H](CN1CCS(=N)(=O)CC1)Nc1ccc(S(=O)(=O)NC(=O)c2ccc(N3CCN(CC4=C(c5ccc(Cl)cc5)CC(C)(C)CC4)CC3)cc2Oc2cnc3[nH]ccc3c2)cc1[N+](=O)[O-]` [Example 45, (S)-2-((1H-pyrrolo[2,3-b]pyridin-5-yl)oxy)-4-(4-((4′-chloro-5,5-dimethyl-3,4,5,6-tetrahydro-[1,1′-biphenyl]-2-yl)methyl)piperazin-1-yl)-N-((4-((1-(1-imino-1-oxido-1λ^6-thiomorpholino)propan-2-yl)amino)-3-nitrophenyl)sulfonyl) benzamide] were 121 nM and 119 nM.

For the origin of these results see US11053239B2, “Compounds as BLC-2-selective apoptosis-inducing agents” (Fochon Pharmaceuticals, Ltd., priority 2017, dated 2021).
